A short description of test [1]: Cytotoxicity against human DLD cells. It is filed as functional, cell-based.
A short description of test [2]: Cytotoxicity against human KB16 cells. It is filed as functional, cell-based.

The structures appear in SMILES notation. ≈ marks a conversion by molar mass, not a printed value.

As for `C=C1CC[C@H](OC(=O)C(C)C)[C@@]2(C)[C@@H](OC(C)=O)CC[C@@]3(CO3)[C@@H]2[C@H](OC(C)=O)[C@]2(O)[C@@H](C)C(=O)O[C@H]2[C@H]1Cl` [JUNCENOLIDE A], the IC50 in test [1] is 3.4 µg/mL (≈ 5.95 µM); in test [2] it was 5.9 µg/mL (≈ 10.3 µM).

The record behind these values is ChEMBL document CHEMBL1159306, “Juncenolide A, a new briarane from the Taiwanese Gorgonian Junceella juncea” (J Nat Prod, 2002).
